# Measurements published in US9416133B2, “Hydropyrrolopyrrole derivatives for use as fatty acid synthase inhibitors” (MERCK PATENT GMBH, priority 2012, dated 2016).
# Target: T1, human recombinant full-length fatty acid synthase (FASN) (Homo sapiens, UniProt P49327)
# T1 construct: 40 nM human recombinant full-length fatty acid synthase (produced in-house in SF9 cells); made in house; host or cells: SF9 cells
# Assay: Biochemical activity testing of human fatty acid synthase FASN (NADPH fluorescence intensity enzyme assay)
# Settings: inhibition of NADPH conversion
# Excerpt: Biochemical Activity Testing of Human Fatty Acid Synthase FASN
# Fatty acid synthase FASN is a multifunctional enzyme with seven catalytic activities thereby synthesising long chain fatty acids especially palmitoyl-CoA in the presence of co-factor NADPH starting from the substrates acetyl-CoA and malonyl-CoA. The reductive synthesis is realized by the oxidation of NADPH to NADP. Since NADPH has a high fluorescence intensity quantum yield compared to NADP with excitation at 340 nm and emission at 460 nm, the reaction can be monitored via the decrease in fluorescence intensity. The biochemical FASN activity testing was performed as 384 well two-time-point kinetic fluorescence intensity assay format in Greiner low volume medium binding 384-well black microtiter plates in a total assay volume of 8 μl and was used for high throughput screen. In each well 3 μl 40 nM human recombinant full-length fatty acid synthase (produced in-house in SF9 cells) were dispensed in the following assay buffer: 50 mM potassium phosphate buffer pH 7.0, 0.005% (w/v) BSA, 2 mM Glutathione, 0.02% Tween-20. Then 2 μl of 200 μM NADPH in assay buffer were added, followed by the addition of the test compounds in 10 dilution concentrations starting with 30 μM (final concentration) to get a final DMSO content of 1% (v/v). The mixture was incubated for at least 15 min at room temperature. After the pre-incubation the enzymatic reaction was started by the addition of 2 μl substrate solution (80 μM acetyl-CoA, 240 μM malonyl-CoA). A first fluorescence intensity measurement (time point one) was performed with an Envision multimode reader (Perkin Elmer LAS Germany GmbH) at excitation wavelength 340 nm (lamp mode) and emission wavelength 460 nm. The reaction was incubated for 30 minutes at room temperature. After this the fluorescence intensity was measured again in the Envision using the same parameters as described above (second time point measurement). The data were analysed by subtracting the first time point measurement value from the second time point measurement value (after the enzymatic reaction). The differences of the emission signals were determined. These reflect directly the conversion rate of NADPH. The full value used was the inhibitor-free reaction. A pharmacological zero value was used like GSK837149A (Sigma-Aldrich) in a final concentration of 5-10 μM. The inhibitory values (IC50) were determined using either the program Symyx Assay Explorer® or Condosseo® from GeneData.
# T1 sequence (P49327 whole entry): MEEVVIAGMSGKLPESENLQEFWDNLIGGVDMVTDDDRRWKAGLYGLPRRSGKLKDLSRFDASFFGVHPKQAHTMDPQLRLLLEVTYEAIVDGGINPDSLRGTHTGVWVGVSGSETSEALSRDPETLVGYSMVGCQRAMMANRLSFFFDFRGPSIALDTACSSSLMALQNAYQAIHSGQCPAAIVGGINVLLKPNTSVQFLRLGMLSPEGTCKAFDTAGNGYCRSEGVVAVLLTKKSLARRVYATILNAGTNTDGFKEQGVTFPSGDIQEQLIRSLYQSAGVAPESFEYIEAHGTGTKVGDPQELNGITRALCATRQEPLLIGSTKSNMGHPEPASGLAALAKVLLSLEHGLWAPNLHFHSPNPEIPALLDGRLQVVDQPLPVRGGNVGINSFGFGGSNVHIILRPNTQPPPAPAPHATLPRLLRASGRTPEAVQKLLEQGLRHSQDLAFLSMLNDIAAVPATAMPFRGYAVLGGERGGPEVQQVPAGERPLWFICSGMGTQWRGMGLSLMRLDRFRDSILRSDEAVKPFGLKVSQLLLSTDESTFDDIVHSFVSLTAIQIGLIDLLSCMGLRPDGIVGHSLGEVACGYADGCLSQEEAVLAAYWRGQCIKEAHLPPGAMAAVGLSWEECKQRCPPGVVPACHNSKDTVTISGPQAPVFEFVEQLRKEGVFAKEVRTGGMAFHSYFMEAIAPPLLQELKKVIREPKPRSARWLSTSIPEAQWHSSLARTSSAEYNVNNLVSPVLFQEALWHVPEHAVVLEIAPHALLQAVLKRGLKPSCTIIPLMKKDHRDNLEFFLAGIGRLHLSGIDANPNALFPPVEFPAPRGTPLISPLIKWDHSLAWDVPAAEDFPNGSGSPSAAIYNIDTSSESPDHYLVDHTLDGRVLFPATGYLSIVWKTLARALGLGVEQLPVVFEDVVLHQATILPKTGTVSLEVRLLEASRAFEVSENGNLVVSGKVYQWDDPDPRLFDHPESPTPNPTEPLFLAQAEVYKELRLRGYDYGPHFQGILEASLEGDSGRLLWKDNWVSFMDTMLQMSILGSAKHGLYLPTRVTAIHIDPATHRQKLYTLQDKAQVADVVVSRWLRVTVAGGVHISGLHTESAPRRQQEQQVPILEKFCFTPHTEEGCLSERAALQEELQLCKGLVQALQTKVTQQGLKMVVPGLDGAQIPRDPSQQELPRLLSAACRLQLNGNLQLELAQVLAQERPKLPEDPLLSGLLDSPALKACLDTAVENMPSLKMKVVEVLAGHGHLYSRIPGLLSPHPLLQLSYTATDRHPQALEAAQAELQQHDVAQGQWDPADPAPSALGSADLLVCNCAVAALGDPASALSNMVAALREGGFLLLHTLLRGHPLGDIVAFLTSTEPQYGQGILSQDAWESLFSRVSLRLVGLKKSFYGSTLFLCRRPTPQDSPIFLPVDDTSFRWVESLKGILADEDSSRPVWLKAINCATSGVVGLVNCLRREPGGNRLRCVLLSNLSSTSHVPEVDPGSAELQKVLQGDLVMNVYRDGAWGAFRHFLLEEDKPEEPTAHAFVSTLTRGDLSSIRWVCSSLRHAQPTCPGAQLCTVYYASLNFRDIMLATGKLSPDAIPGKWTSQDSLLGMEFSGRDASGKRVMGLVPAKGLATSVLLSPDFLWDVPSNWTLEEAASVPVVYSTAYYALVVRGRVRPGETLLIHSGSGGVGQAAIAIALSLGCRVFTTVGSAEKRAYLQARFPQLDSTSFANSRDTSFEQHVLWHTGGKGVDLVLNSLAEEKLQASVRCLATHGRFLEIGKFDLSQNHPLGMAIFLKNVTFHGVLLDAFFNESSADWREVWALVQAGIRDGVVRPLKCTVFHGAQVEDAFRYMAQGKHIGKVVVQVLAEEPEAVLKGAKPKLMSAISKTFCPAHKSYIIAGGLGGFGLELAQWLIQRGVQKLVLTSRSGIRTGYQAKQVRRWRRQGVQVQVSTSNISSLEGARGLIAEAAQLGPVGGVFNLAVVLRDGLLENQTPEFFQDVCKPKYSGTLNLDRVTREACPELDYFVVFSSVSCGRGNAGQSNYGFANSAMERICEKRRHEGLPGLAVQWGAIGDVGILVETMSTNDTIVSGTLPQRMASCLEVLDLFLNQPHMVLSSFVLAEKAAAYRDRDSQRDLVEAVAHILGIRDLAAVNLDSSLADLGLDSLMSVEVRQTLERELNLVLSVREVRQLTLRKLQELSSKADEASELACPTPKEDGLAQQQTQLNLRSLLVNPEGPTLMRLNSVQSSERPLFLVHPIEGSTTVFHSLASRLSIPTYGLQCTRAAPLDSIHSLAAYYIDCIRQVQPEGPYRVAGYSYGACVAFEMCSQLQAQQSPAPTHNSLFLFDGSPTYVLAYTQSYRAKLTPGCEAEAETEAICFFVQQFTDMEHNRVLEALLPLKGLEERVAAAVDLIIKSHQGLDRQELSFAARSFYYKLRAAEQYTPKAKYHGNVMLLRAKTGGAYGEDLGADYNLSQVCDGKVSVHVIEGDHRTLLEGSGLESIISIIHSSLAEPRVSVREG
row,IC50 [µM],SMILES
1,0.3 to 3,"CCC(=O)N1CC2CN(C(=O)c3ccc(-c4ccc5ccoc5c4)cc3)CC2C1 (centres unmarked) [Compound A2, 1-[5-(4-benzofuran-6-yl-benzoyl)-hexahydro-pyrrolo[3,4-c]pyrrol-2-yl]-propan-1-one]"
2,0.3 to 3,"CC(=O)N1CC2CN(C(=O)c3ccc(-c4ccc5cnccc5c4)cc3)CC2C1 (centres unmarked) [Compound A3, 1-[5-(4-isoquinolin-6-yl-benzoyl)-hexahydro-pyrrolo[3,4-c]pyrrol-2-yl]-ethanone]"
3,0.3 to 3,"O=C(c1ccc(-c2ccc3cc[nH]c3c2)cc1)N1CC2CN(C(=O)C3CC3)CC2C1 (centres unmarked) [Compound A5, (5-cyclopropanecarbonyl-hexahydro-pyrrolo[3,4-c]pyrrol-2-yl)-[4-(1H-indol-6-yl)-phenyl]-methanone]"
4,3 to 50,"CC(=O)N1CC2CN(C(=O)c3ccc(-c4ccc5ccoc5c4)cc3)CC2C1 (centres unmarked) [Compound A6, 1-[5-(4-benzofuran-6-yl-benzoyl)-hexahydro-pyrrolo[3,4-c]pyrrol-2-yl]-ethanone]"
5,0.3 to 3,"CC(=O)N1CC2CN(C(=O)c3ccc(-c4ccc5cc[nH]c5c4)cc3)CC2C1 (centres unmarked) [Compound A7, 1-{5-[4-(1H-indol-6-yl)-benzoyl]-hexahydro-pyrrolo[3,4-c]pyrrol-2-yl}-ethanone]"
6,0.3 to 3,"CCC(=O)N1CC2CN(C(=O)c3ccc(-c4ccc5cc[nH]c5c4)cc3)CC2C1 (centres unmarked) [Compound A4, 1-{5-[4-(1H-indol-6-yl)-benzoyl]-hexahydro-pyrrolo[3,4-c]pyrrol-2-yl}-propan-1-one]"
7,0.3 to 3,"O=C(c1ccc(-c2ccc3cnccc3c2)cc1)N1CC2CN(C(=O)C3CC3)CC2C1 (centres unmarked) [Compound A8, (5-cyclopropanecarbonyl-hexahydro-pyrrolo[3,4-c]pyrrol-2-yl)-(4-isoquinolin-6-yl-phenyl)-methanone]"
8,< 0.3,"CCC(=O)N1CC2CN(C(=O)c3ccc(-c4ccc5cnccc5c4)cc3)CC2C1 (centres unmarked) [Compound A1, 1-[5-(4-isoquinolin-6-yl-benzoyl)-hexahydro-pyrrolo[3,4-c]pyrrol-2-yl]-propan-1-one]"
